In patent publication US8686113B2 (priority 2009, dated 2014):
In brackets after ≈: the same amount, converted by molar mass. Non-standard residues stand in square brackets, D forms with d. Residues, ends and D or L forms follow the SMILES beside them. Arg(NO2) = N=C(NCCC[C@H](N)C(=O)O)N[N+](=O)[O-]; NMeR = CN[C@@H](CCCNC(=N)N)C(=O)O; hArg = N=C(N)NCCCC[C@H](N)C(=O)O; β3hR = N=C(N)NCCC[C@H](N)CC(=O)O; Agp = N=C(N)NC[C@H](N)C(=O)O; Orn = NCCC[C@H](N)C(=O)O; Dap = NC[C@H](N)C(=O)O

How the values were obtained:
[1] = tested on: E. coli BL21 A1; format: cell-based, Escherichia coli; details: BL21, 20 h
Protocol: (§1) The minimum inhibitory concentrations (MIC) of the antimicrobial peptides and peptide derivatives were determined in microdilution assays. These used a continuous peptide dilution in sterile flat-bottomed 96-well microtiter plates (polystyrene, Greiner Bio-One GmbH, Frickenhausen, Germany) and a total volume of 100 μL per well. The aqueous peptide or peptidomimetic solutions were diluted with 1% TSB water, to obtain a final concentration of 256 μg/mL. 50 μL of the peptide or peptidomimetic solution was pipetted into the first well of each series and stirred. From this solution, 50 μL was transferred to the second well, stirred and again 50 μL was transferred to the next well, and so on. A double dilution series is obtained, beginning at 256 μg/mL in the first well to 125 ng/mL in the twelfth well. The bacteria, e.g. E. coli BL21 A1, were cultured overnight at 37° C. in nutrient broth (NB, Carl Roth GmbH+Co. KG, Karlsruhe, Germany). 50 μL of a 5×10^6 bacteria/mL suspension in 1% TSB was added to each well of the microtiter plate and thus a final concentration of the peptides or peptidomimetics from 128 μg/mL (well 1) to 62.5 ng/mL (well 12) was established in each series. The plates were incubated at 37° C. for 20 h and then the absorption was measured at 595 nm with a TECAN microtiter plate spectrophotometer (Tecan Trading AG, Mannedorf, Switzerland). The MIC values of all peptides and peptidomimetics were determined in triplicate. Sterile water was used as negative control. The MIC value represents the lowest peptide concentration at which no bacterial growth is observed after an incubation time of 20 h at 37° C.
(§2) The MIC values of the peptides and peptide derivatives against Escherichia coli BL21 A1 and Micrococcus luteus ATCC 10240 are given in Table 7.

[2] = tested on: M. luteus 10240; assay: Growth inhibition assay (microdilution MIC); format: cell-based, Micrococcus luteus; details: 10240, 20 h
Protocol: as §1, §2

| SMILES | MIC E. coli BL21 A1 [1] [µg/mL] | MIC M. luteus 10240 [2] [µg/mL] |
| --- | --- | --- |
| CC[C@H](C)[C@H](NC(=O)[C@H](CCCNC(=N)N)NC(=O)[C@H](CCCNC(=N)N)NC(=O)[C@@H]1CCCN1C(=O)[C@@H]1CCCN1C(=O)[C@H](CCCNC(=N)N)NC(=O)[C@@H]1CCCN1C(=O)[C@H](CCCNC(=N)N)NC(=O)[C@@H]1CCCN1C(=O)[C@H](CC(C)C)NC(=O)[C@H](Cc1ccc(O)cc1)NC(=O)[C@@H]1CCCN1C(=O)[C@@H]1CCCN1C(=O)[C@H](CCCCN)NC(=O)[C@H](CC(=O)O)NC(=O)[C@@H](N)C(C)C)C(=O)N[C@@H](Cc1ccc(O)cc1)C(=O)N[C@@H](CC(N)=O)C(=O)N[C@@H](CNC(C)=O)C(N)=O [compound 52] (H-VDKPPYLPRPRPPRRIYN[Dap](Ac)-NH2; N-terminus assumed) | 32 (≈ 13.5 µM) | 64 (≈ 27.1 µM) |
| CC[C@H](C)[C@H](NC(=O)[C@H](CCCNC(=N)N)NC(=O)[C@H](CCCNC(=N)N)NC(=O)[C@@H]1CCCN1C(=O)[C@@H]1CCCN1C(=O)[C@H](CCCNC(=N)N)NC(=O)[C@@H]1CCCN1C(=O)[C@H](CCCNC(=N)N)NC(=O)[C@@H]1CCCN1C(=O)[C@H](CC(C)C)NC(=O)[C@H](Cc1ccc(O)cc1)NC(=O)[C@@H]1CCCN1C(=O)[C@@H]1CCCN1C(=O)[C@H](CCCCN)NC(=O)[C@H](CC(=O)O)NC(=O)[C@@H](N)C(C)C)C(=O)N[C@@H](Cc1ccc(O)cc1)C(=O)N[C@@H](CC(N)=O)C(=O)N[C@@H](CNC(=N)N)C(N)=O [compound 54] (H-VDKPPYLPRPRPPRRIYN[Agp]-NH2) | 8 (≈ 3.39 µM) | 8 (≈ 3.39 µM) |
| CC[C@H](C)[C@H](NC(=O)[C@H](CCCNC(=N)N)NC(=O)[C@H](CCCNC(=N)N)NC(=O)[C@@H]1CCCN1C(=O)[C@@H]1CCCN1C(=O)[C@H](CCCNC(=N)N)NC(=O)[C@@H]1CCCN1C(=O)[C@H](CCCNC(=N)N)NC(=O)[C@@H]1CCCN1C(=O)[C@H](CC(C)C)NC(=O)[C@H](Cc1ccc(O)cc1)NC(=O)[C@@H]1CCCN1C(=O)[C@@H]1CCCN1C(=O)[C@H](CCCCN)NC(=O)[C@H](CC(=O)O)NC(=O)[C@@H](N)C(C)C)C(=O)N[C@@H](Cc1ccc(O)cc1)C(=O)N[C@@H](CC(N)=O)C(=O)N[C@@H](CCCNC(=N)N[N+](=O)[O-])C(N)=O [compound 55] (H-VDKPPYLPRPRPPRRIYN[Arg(NO2)]-NH2) | 8 (≈ 3.29 µM) | 16 (≈ 6.57 µM) |
| CC[C@H](C)[C@H](NC(=O)[C@H](CCCNC(=N)N)NC(=O)[C@H](CCCNC(=N)N)NC(=O)[C@@H]1CCCN1C(=O)[C@@H]1CCCN1C(=O)[C@H](CCCNC(=N)N)NC(=O)[C@@H]1CCCN1C(=O)[C@H](CCCNC(=N)N)NC(=O)[C@@H]1CCCN1C(=O)[C@H](CC(C)C)NC(=O)[C@H](Cc1ccc(O)cc1)NC(=O)[C@@H]1CCCN1C(=O)[C@@H]1CCCN1C(=O)[C@H](CCCCN)NC(=O)[C@H](CC(=O)O)NC(=O)[C@@H](N)C(C)C)C(=O)N[C@@H](Cc1ccc(O)cc1)C(=O)N[C@@H](CC(N)=O)C(=O)N(C)[C@@H](CCCNC(=N)N)C(N)=O [compound 56] (H-VDKPPYLPRPRPPRRIYN[NMeR]-NH2; N-terminus assumed) | 8 (≈ 3.33 µM) | 4 (≈ 1.66 µM) |
| CC[C@H](C)[C@H](NC(=O)[C@H](CCCNC(=N)N)NC(=O)[C@H](CCCNC(=N)N)NC(=O)[C@@H]1CCCN1C(=O)[C@@H]1CCCN1C(=O)[C@H](CCCNC(=N)N)NC(=O)[C@@H]1CCCN1C(=O)[C@H](CCCNC(=N)N)NC(=O)[C@@H]1CCCN1C(=O)[C@H](CC(C)C)NC(=O)[C@H](Cc1ccc(O)cc1)NC(=O)[C@@H]1CCCN1C(=O)[C@@H]1CCCN1C(=O)[C@H](CCCCN)NC(=O)[C@H](CC(=O)O)NC(=O)[C@@H](N)C(C)C)C(=O)N[C@@H](Cc1ccc(O)cc1)C(=O)N[C@@H](CC(N)=O)C(=O)N[C@@H](CCCCNC(=N)N)C(N)=O [compound 57] (H-VDKPPYLPRPRPPRRIYN[hArg]-NH2) | 8 (≈ 3.33 µM) | 8 (≈ 3.33 µM) |
| CC[C@H](C)[C@H](NC(=O)C[C@H](CCCNC(=N)N)NC(=O)[C@H](CCCNC(=N)N)NC(=O)[C@@H]1CCCN1C(=O)[C@@H]1CCCN1C(=O)[C@H](CCCNC(=N)N)NC(=O)[C@@H]1CCCN1C(=O)[C@H](CCCNC(=N)N)NC(=O)[C@@H]1CCCN1C(=O)[C@H](CC(C)C)NC(=O)[C@H](Cc1ccc(O)cc1)NC(=O)[C@@H]1CCCN1C(=O)[C@@H]1CCCN1C(=O)[C@H](CCCCN)NC(=O)[C@H](CC(=O)O)NC(=O)[C@@H](N)C(C)C)C(=O)N[C@@H](Cc1ccc(O)cc1)C(=O)N[C@@H](CC(N)=O)C(=O)N[C@@H](CCCNC(=N)N)C(N)=O [compound 62] (H-VDKPPYLPRPRPPR[β3hR]IYNR-NH2) | 4 (≈ 1.66 µM) | 16 (≈ 6.66 µM) |
| CC[C@H](C)[C@H](NC(=O)[C@H](CNC(=N)N)NC(=O)[C@H](CCCNC(=N)N)NC(=O)[C@@H]1CCCN1C(=O)[C@@H]1CCCN1C(=O)[C@H](CCCNC(=N)N)NC(=O)[C@@H]1CCCN1C(=O)[C@H](CCCNC(=N)N)NC(=O)[C@@H]1CCCN1C(=O)[C@H](CC(C)C)NC(=O)[C@H](Cc1ccc(O)cc1)NC(=O)[C@@H]1CCCN1C(=O)[C@@H]1CCCN1C(=O)[C@H](CCCCN)NC(=O)[C@H](CC(=O)O)NC(=O)[C@@H](N)C(C)C)C(=O)N[C@@H](Cc1ccc(O)cc1)C(=O)N[C@@H](CC(N)=O)C(=O)N[C@@H](CCCCNC(=N)N)C(N)=O [compound 65] (H-VDKPPYLPRPRPPR[Agp]IYN[hArg]-NH2) | 4 (≈ 1.68 µM) | 2 (≈ 0.842 µM) |
| CC[C@H](C)[C@H](NC(=O)[C@H](CNC(=N)N)NC(=O)[C@H](CCCNC(=N)N)NC(=O)[C@@H]1CCCN1C(=O)[C@@H]1CCCN1C(=O)[C@H](CCCNC(=N)N)NC(=O)[C@@H]1CCCN1C(=O)[C@H](CCCNC(=N)N)NC(=O)[C@@H]1CCCN1C(=O)[C@H](CC(C)C)NC(=O)[C@H](Cc1ccc(O)cc1)NC(=O)[C@@H]1CCCN1C(=O)[C@@H]1CCCN1C(=O)[C@H](CCCCN)NC(=O)[C@H](CC(=O)O)NC(=O)[C@@H](N)C(C)C)C(=O)N[C@@H](Cc1ccc(O)cc1)C(=O)N[C@@H](CC(N)=O)C(=O)N[C@@H](CNC(=N)N)C(N)=O [compound 66] (H-VDKPPYLPRPRPPR[Agp]IYN[Agp]-NH2) | 8 (≈ 3.43 µM) | 4 (≈ 1.71 µM) |
| CC[C@H](C)[C@H](NC(=O)[C@H](CCCCNC(=N)N)NC(=O)[C@H](CCCNC(=N)N)NC(=O)[C@@H]1CCCN1C(=O)[C@@H]1CCCN1C(=O)[C@H](CCCNC(=N)N)NC(=O)[C@@H]1CCCN1C(=O)[C@H](CCCNC(=N)N)NC(=O)[C@@H]1CCCN1C(=O)[C@H](CC(C)C)NC(=O)[C@H](Cc1ccc(O)cc1)NC(=O)[C@@H]1CCCN1C(=O)[C@@H]1CCCN1C(=O)[C@H](CCCCN)NC(=O)[C@H](CC(=O)O)NC(=O)[C@@H](N)C(C)C)C(=O)N[C@@H](Cc1ccc(O)cc1)C(=O)N[C@@H](CC(N)=O)C(=O)N[C@@H](CNC(=N)N)C(N)=O [compound 68] (H-VDKPPYLPRPRPPR[hArg]IYN[Agp]-NH2) | 4 (≈ 1.68 µM) | 4 (≈ 1.68 µM) |
| CC[C@H](C)[C@H](NC(=O)[C@H](CCCN)NC(=O)[C@H](CCCNC(=N)N)NC(=O)[C@@H]1CCCN1C(=O)[C@@H]1CCCN1C(=O)[C@H](CCCNC(=N)N)NC(=O)[C@@H]1CCCN1C(=O)[C@H](CCCNC(=N)N)NC(=O)[C@@H]1CCCN1C(=O)[C@H](CC(C)C)NC(=O)[C@H](Cc1ccc(O)cc1)NC(=O)[C@@H]1CCCN1C(=O)[C@@H]1CCCN1C(=O)[C@H](CCCCN)NC(=O)[C@H](CC(=O)O)NC(=O)[C@@H](N)C(C)C)C(=O)N[C@@H](Cc1ccc(O)cc1)C(=O)N[C@@H](CC(N)=O)C(=O)N[C@@H](CNC(=N)N)C(N)=O [compound 69] (H-VDKPPYLPRPRPPR[Orn]IYN[Agp]-NH2) | 4 (≈ 1.72 µM) | 4 (≈ 1.72 µM) |
| CC[C@H](C)[C@H](NC(=O)[C@H](CCCN)NC(=O)[C@H](CCCNC(=N)N)NC(=O)[C@@H]1CCCN1C(=O)[C@@H]1CCCN1C(=O)[C@H](CCCNC(=N)N)NC(=O)[C@@H]1CCCN1C(=O)[C@H](CCCNC(=N)N)NC(=O)[C@@H]1CCCN1C(=O)[C@H](CC(C)C)NC(=O)[C@H](Cc1ccc(O)cc1)NC(=O)[C@@H]1CCCN1C(=O)[C@@H]1CCCN1C(=O)[C@H](CCCCN)NC(=O)[C@H](CC(=O)O)NC(=O)[C@@H](N)C(C)C)C(=O)N[C@@H](Cc1ccc(O)cc1)C(=O)N[C@@H](CC(N)=O)C(=O)N[C@@H](CCCCNC(=N)N)C(N)=O [compound 70] (H-VDKPPYLPRPRPPR[Orn]IYN[hArg]-NH2) | 4 (≈ 1.69 µM) | 4 (≈ 1.69 µM) |
| CC[C@H](C)[C@H](NC(=O)[C@H](CCCNC(=N)N)NC(=O)[C@H](CCCNC(=N)N)NC(=O)[C@@H]1CCCN1C(=O)[C@@H]1CCCN1C(=O)[C@H](CCCNC(=N)N)NC(=O)[C@@H]1CCCN1C(=O)[C@H](CCCNC(=N)N)NC(=O)[C@@H]1CCCN1C(=O)[C@H](CC(C)C)NC(=O)[C@H](Cc1ccc(O)cc1)NC(=O)[C@@H]1CCCN1C(=O)[C@@H]1CCCN1C(=O)[C@H](CCCCN)NC(=O)[C@H](CC(=O)O)NC(=O)[C@@H](NC(=O)[C@@H](CS)NC(=O)[C@H](C)N)C(C)C)C(=O)N[C@@H](Cc1ccc(O)cc1)C(=O)N[C@@H](CC(N)=O)C(=O)N[C@@H](CCCNC(=N)N)C(=O)O [compound 80] (H-A[dC]VDKPPYLPRPRPPRRIYNR-OH) | >256 | 16 (≈ 6.24 µM) |
